Test results published in patent US9833497B2, “Human originated EGF domain proteins and use of the same” (CHENGDU SOURCEBIO LIMITED-LIABILITY COMPANY, priority 2013, dated 2017).

Key:
Format in all cases: cell-based
E. coli BL21 = assay: MIC against Gram-negative bacteria: E. coli BL21; settings: for MIC E. coli BL21 / MIC (μg/mL) E. coli BL21: 5×10^5 CFU/mL; for MIC / MIC (μg/mL) E. coli BL21: E. coli BL21
How it was run: (§1)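 Bacteria grown in LB at 37° C to McFarland 0.5, resuspended and seeded at 5×10^5 CFU/mL in 96-well plates. Purified human EGF-domain proteins two-fold serially diluted, triplicate wells; cultured at 37° C, shaking 175 rpm. MIC = lowest protein concentration with no growth.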

Aeromonas hydrophila = assay: MIC against Gram-negative bacteria: Aeromonas hydrophila; settings: for MIC A. hydrophila / MIC (μg/mL) A. hydrophila: 5×10^5 CFU/mL
How it was run: as §1

Proteus mirabilis = assay: MIC against Gram-negative bacteria: Proteus mirabilis; settings: for MIC P. mirabilis / MIC (μg/mL) P. mirabilis: 5×10^5 CFU/mL
How it was run: as §1

Citrobacter diversus = assay: MIC against Gram-negative bacteria: Citrobacter diversus; settings: for MIC C. diversus / MIC (μg/mL) C. diversus: 5×10^5 CFU/mL
How it was run: as §1

Pseudomonas aeruginosa = assay: MIC against Gram-negative bacteria: Pseudomonas aeruginosa; settings: for MIC P. aeruginosa / MIC (μg/mL) P. aeruginosa: 5×10^5 CFU/mL
How it was run: as §1

E. coli DH5α = assay: Antibacterial activity: MIC and growth curve against E. coli DH5α in 96-well plate; settings: minimal inhibitory concentration against E. coli DH5α; 96-well plate, 5×10^5 CFU/mL, 37° C., judged after 8 h
How it was run: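 Log-phase bacteria (OD600 ~0.5) resuspended in LB at 5×10^5 CFU/mL, exposed to recombinant protein at 50, 25, 12.5 μg/mL final in triplicate, 37 °C shaking at 175 rpm. OD600 read every 30 min; MIC is lowest concentration showing no growth.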

Moraxella catarrhalis = assay: MIC against Gram-negative bacteria: Moraxella catarrhalis; settings: for MIC M. catarrhalis / MIC (μg/mL) M. catarrhalis: 5×10^5 CFU/mL
How it was run: as §1

Proteus vulgaris = assay: MIC against Gram-negative bacteria: Proteus vulgaris; settings: for MIC P. vulgaris / MIC (μg/mL) P. vulgaris: 5×10^5 CFU/mL
How it was run: as §1

Enterobacter cloacae = assay: MIC against Gram-negative bacteria: Enterobacter cloacae; settings: for MIC E. cloacae / MIC (μg/mL) E. cloacae: 5×10^5 CFU/mL
How it was run: as §1

Serratia marcescens = assay: MIC against Gram-negative bacteria: Serratia marcescens; settings: for MIC S. marcescens / MIC (μg/mL) S. marcescens: 5×10^5 CFU/mL
How it was run: as §1

Klebsiella pneumonia = assay: MIC against Gram-negative bacteria: Klebsiella pneumonia; settings: for MIC K. pneumonia / MIC (μg/mL) K. pneumonia: 5×10^5 CFU/mL
How it was run: as §1

[1] = 10 h cultivation at 37° C., two-fold serial dilution
[2] = A. hydrophila, 10 h cultivation at 37° C.
[3] = P. mirabilis, 10 h cultivation at 37° C.
[4] = C. diversus, 10 h cultivation at 37° C.
[5] = P. aeruginosa, 10 h cultivation at 37° C.
[6] = M. catarrhalis, 10 h cultivation at 37° C.
[7] = P. vulgaris, 10 h cultivation at 37° C.
[8] = E. cloacae, 10 h cultivation at 37° C.
[9] = S. marcescens, 10 h cultivation at 37° C.
[10] = K. pneumonia, 10 h cultivation at 37° C.

PRT1151 (QFASCENNPCGNGATCVPKSGTDIVCLCPYGRSGPLCT; listed as Homo sapiens)
12.5 µg/mL: MIC E. coli BL21 (E. coli BL21; [1]) | MIC C. diversus (Citrobacter diversus; [1]) | MIC P. vulgaris (Proteus vulgaris; [1]) | MIC S. marcescens (Serratia marcescens; [1])
25 µg/mL: MIC A. hydrophila (Aeromonas hydrophila; [1]) | MIC P. aeruginosa (Pseudomonas aeruginosa; [1]) | MIC (E. coli DH5α) | MIC M. catarrhalis (Moraxella catarrhalis; [1]) | MIC E. cloacae (Enterobacter cloacae; [1])
50 µg/mL: MIC P. mirabilis (Proteus mirabilis; [1]) | MIC K. pneumonia (Klebsiella pneumonia; [1])

PRT934 (DKNECLSNPCQNGGTCDNLVNGYRCTCKKGFKGYNCQ; listed as Homo sapiens)
25 µg/mL: MIC (E. coli BL21; 10 h cultivation at 37° C.) | MIC (Aeromonas hydrophila; [2]) | MIC (Citrobacter diversus; [4])
12.5 µg/mL: MIC (E. coli DH5α) | MIC (Moraxella catarrhalis; [6]) | MIC (Proteus vulgaris; [7]) | MIC (Klebsiella pneumonia; [10])
50 µg/mL: MIC (Proteus mirabilis; [3]) | MIC (Pseudomonas aeruginosa; [5]) | MIC (Enterobacter cloacae; [8]) | MIC (Serratia marcescens; [9])

PRT88 (HRMDQQCPRGWWGSPTCGPCNCDVHKGFDPNCN; listed as Homo sapiens)
12.5 µg/mL: MIC (μg/mL) E. coli BL21 (E. coli BL21; 96-well plate, 37° C., 10 h) | MIC (μg/mL) A. hydrophila (Aeromonas hydrophila; Aeromonas hydrophila, 96-well plate, 37° C., 10 h) | MIC (μg/mL) C. diversus (Citrobacter diversus; Citrobacter diversus, 96-well plate, 37° C., 10 h) | MIC (μg/mL) M. catarrhalis (Moraxella catarrhalis; Moraxella catarrhalis, 96-well plate, 37° C., 10 h) | MIC (μg/mL) E. cloacae (Enterobacter cloacae; Enterobacter cloacae, 96-well plate, 37° C., 10 h) | MIC (μg/mL) S. marcescens (Serratia marcescens; Serratia marcescens, 96-well plate, 37° C., 10 h)
100 µg/mL: MIC (μg/mL) K. pneumonia (Klebsiella pneumonia; Klebsiella pneumonia, 96-well plate, 37° C., 10 h)
50 µg/mL: MIC (μg/mL) P. mirabilis (Proteus mirabilis; Proteus mirabilis, 96-well plate, 37° C., 10 h) | MIC (μg/mL) P. aeruginosa (Pseudomonas aeruginosa; Pseudomonas aeruginosa, 96-well plate, 37° C., 10 h)
25 µg/mL: MIC (E. coli DH5α) | MIC (μg/mL) P. vulgaris (Proteus vulgaris; Proteus vulgaris, 96-well plate, 37° C., 10 h)

PRT837 (RFSLCPGGCQSHGQCQPPGVCACEPGWGGPD; listed as Homo sapiens)
12.5 µg/mL: MIC (μg/mL) E. coli BL21 (E. coli BL21; 10 h cultivation at 37° C.) | MIC (μg/mL) P. mirabilis (Proteus mirabilis; [3]) | MIC (μg/mL) C. diversus (Citrobacter diversus; [4]) | MIC (μg/mL) P. vulgaris (Proteus vulgaris; [7]) | MIC (μg/mL) E. cloacae (Enterobacter cloacae; [8]) | MIC (μg/mL) S. marcescens (Serratia marcescens; [9])
25 µg/mL: MIC (μg/mL) A. hydrophila (Aeromonas hydrophila; [2]) | MIC (μg/mL) P. aeruginosa (Pseudomonas aeruginosa; [5]) | MIC (E. coli DH5α) | MIC (μg/mL) M. catarrhalis (Moraxella catarrhalis; [6]) | MIC (μg/mL) K. pneumonia (Klebsiella pneumonia; [10])

PRT994 (DHNECLSQPCHPGSTCLDLLATFHCLCPPGLEGQLCE; listed as Homo sapiens)
25 µg/mL: MIC (Proteus mirabilis; [3]) | MIC (Pseudomonas aeruginosa; [5]) | MIC (Enterobacter cloacae; [8]) | MIC (Serratia marcescens; [9])
12.5 µg/mL: MIC (E. coli BL21; 10 h cultivation at 37° C.) | MIC (Aeromonas hydrophila; [2]) | MIC (Moraxella catarrhalis; [6])
50 µg/mL: MIC (Citrobacter diversus; [4]) | MIC (E. coli DH5α) | MIC (Proteus vulgaris; [7]) | MIC (Klebsiella pneumonia; [10])

PRT1156 (IIGQCQPHVCFHGNCSNITSNSFICECDEQFSGPFCE; listed as Homo sapiens)
12.5 µg/mL: MIC P. aeruginosa (Pseudomonas aeruginosa; [1]) | MIC M. catarrhalis (Moraxella catarrhalis; [1]) | MIC P. vulgaris (Proteus vulgaris; [1])
25 µg/mL: MIC E. coli BL21 (E. coli BL21; [1]) | MIC C. diversus (Citrobacter diversus; [1]) | MIC E. cloacae (Enterobacter cloacae; [1]) | MIC K. pneumonia (Klebsiella pneumonia; [1])
50 µg/mL: MIC A. hydrophila (Aeromonas hydrophila; [1]) | MIC P. mirabilis (Proteus mirabilis; [1]) | MIC (E. coli DH5α) | MIC S. marcescens (Serratia marcescens; [1])

PRT673 (DVDECLDESNCRNGVCENTRGGYRCACTPPAEYSPAQRQCL; listed as Homo sapiens)
25 µg/mL: MIC C. diversus (Citrobacter diversus; 96-well plate, 37° C., 10 h) | MIC M. catarrhalis (Moraxella catarrhalis; 96-well plate, 37° C., 10 h) | MIC E. cloacae (Enterobacter cloacae; 96-well plate, 37° C., 10 h)
50 µg/mL: MIC A. hydrophila (Aeromonas hydrophila; 96-well plate, 37° C., 10 h) | MIC P. mirabilis (Proteus mirabilis; 96-well plate, 37° C., 10 h) | MIC P. aeruginosa (Pseudomonas aeruginosa; 96-well plate, 37° C., 10 h) | MIC (E. coli DH5α) | MIC S. marcescens (Serratia marcescens; 96-well plate, 37° C., 10 h) | MIC K. pneumonia (Klebsiella pneumonia; 96-well plate, 37° C., 10 h)
12.5 µg/mL: MIC E. coli BL21 (E. coli BL21; 96-well plate, 37° C., 10 h) | MIC P. vulgaris (Proteus vulgaris; 96-well plate, 37° C., 10 h)
